Assay [1] deals with Histamine H3 receptor (Mus musculus) (UniProt P58406). The assay is described as follows: In vivo antagonistic activity against histamine H3-receptor of Swiss mice brain after peroral administration. In kind it is functional, organism-based.
The target in another assay is Histamine H3 receptor (Rattus norvegicus, UniProt Q9QYN8). The assay is described as follows: In vitro antagonistic activity against histamine H3-receptor in an assay with K+-evoked depolarisation-induced release of [3H]histamine of synaptosomes of rat cerebral cortex. In kind it is functional, subcellular, Brain.
Histamine H3 receptor, sequence (Q9QYN8 whole entry): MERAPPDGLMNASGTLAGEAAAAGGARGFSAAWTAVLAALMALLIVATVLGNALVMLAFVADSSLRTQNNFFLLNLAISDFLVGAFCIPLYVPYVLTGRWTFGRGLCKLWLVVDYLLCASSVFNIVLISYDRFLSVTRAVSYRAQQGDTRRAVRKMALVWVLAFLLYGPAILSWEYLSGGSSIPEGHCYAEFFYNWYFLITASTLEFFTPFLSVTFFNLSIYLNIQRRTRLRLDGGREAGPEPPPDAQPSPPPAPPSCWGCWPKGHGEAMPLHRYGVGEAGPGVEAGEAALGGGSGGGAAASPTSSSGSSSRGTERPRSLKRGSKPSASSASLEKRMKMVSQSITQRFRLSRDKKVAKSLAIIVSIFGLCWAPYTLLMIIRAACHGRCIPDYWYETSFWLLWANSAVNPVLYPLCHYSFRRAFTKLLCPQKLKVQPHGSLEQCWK
Assay [2] deals with Histamine H2 receptor (Cavia porcellus) (UniProt P47747). The assay is described as follows: In vitro antagonistic activity against histamine H2-receptor of guinea pig atrium. The format is functional, tissue-based. The conditions noted are these: Cardiac atrium.
Histamine H2 receptor (Cavia porcellus), sequence (P47747 whole entry): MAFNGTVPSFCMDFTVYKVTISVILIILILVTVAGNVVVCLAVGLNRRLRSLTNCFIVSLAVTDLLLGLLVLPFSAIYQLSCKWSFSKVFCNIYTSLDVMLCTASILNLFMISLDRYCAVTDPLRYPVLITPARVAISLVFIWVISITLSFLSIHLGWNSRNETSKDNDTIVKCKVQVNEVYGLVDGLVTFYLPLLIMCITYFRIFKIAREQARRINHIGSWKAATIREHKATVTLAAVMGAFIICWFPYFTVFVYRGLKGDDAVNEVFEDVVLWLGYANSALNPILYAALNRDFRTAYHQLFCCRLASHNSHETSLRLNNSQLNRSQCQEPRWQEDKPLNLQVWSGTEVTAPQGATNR
Assay [3] has as its target Histamine H1 receptor (Cavia porcellus) (UniProt P31389). The assay is described as follows: In vitro antagonistic activity against histamine H1-receptor of guinea pig ileum. In kind it is functional, tissue-based.

10 compounds from ChEMBL document CHEMBL1151569, “Diphenylmethyl ethers: synthesis and histamine H3-receptor antagonist in vitro and in vivo activity” (Bioorg Med Chem Lett, 1996) can be followed below.

For orientation: ED50 means the dose that gives a 50% effect, or the effect in half of the subjects. Usually Ki stands for a dissociation constant, usually derived from enzyme kinetics or from competition with a known ligand. A lower Ki goes with higher affinity. Usually Kb stands for the affinity of an antagonist, worked out from how it opposes an agonist.

Histamine H3 receptor (Mus musculus), sequence (P58406 whole entry): as the sequence (Q9QYN8 whole entry) above, with T15A, A286T, A290G, R387H, I389V counted along it
Histamine H1 receptor (Cavia porcellus), sequence (P31389 whole entry): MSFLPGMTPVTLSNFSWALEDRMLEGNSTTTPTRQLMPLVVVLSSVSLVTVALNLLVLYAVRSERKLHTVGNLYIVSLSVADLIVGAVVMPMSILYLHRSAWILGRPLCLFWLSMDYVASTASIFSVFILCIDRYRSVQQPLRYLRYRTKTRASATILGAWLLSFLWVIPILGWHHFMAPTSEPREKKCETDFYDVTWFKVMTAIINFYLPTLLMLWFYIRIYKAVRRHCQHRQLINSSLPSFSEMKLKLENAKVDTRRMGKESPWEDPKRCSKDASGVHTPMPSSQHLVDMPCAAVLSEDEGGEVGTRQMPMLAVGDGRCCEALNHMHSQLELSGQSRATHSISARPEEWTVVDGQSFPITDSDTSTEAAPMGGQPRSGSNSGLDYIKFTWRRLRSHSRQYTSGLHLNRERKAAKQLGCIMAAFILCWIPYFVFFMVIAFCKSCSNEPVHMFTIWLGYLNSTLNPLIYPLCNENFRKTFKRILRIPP

Consider `c1ccc(COCCCc2c[nH]cn2)cc1`, for which, in assay [1], the ED50 was > 10 mg/kg. Further, on Histamine H3 receptor, the Ki is 20 nM. Besides, the -Log K in assay [2] was found to be 3.7. The Kb in assay [3] turned out to be 20 µM.

As for `FC(F)(F)c1ccc(C(OCCCc2c[nH]cn2)c2ccccc2)cc1` (stereo not given), the ED50 in assay [1] is > 10 mg/kg. On Histamine H3 receptor, this compound showed a Ki of 200 nM.

`S=C(NC1CCCCC1)N1CCC(c2cnc[nH]2)CC1` returned an ED50 in assay [1] of 1 mg/kg. Also, in assay [2], the -Log K is < 5. Further, the Kb in assay [3] is > 100 µM.

As for `Brc1ccc(C(OCCCc2c[nH]cn2)c2ccccc2)cc1` (stereo not given), the ED50 in assay [1] is 3.6 mg/kg. Also, on Histamine H3 receptor, the affinity, expressed as Ki, was 126 nM. The compound also showed a -Log K in assay [2] of 5.4.

In turn, `c1ccc2c(COCCCc3c[nH]cn3)cccc2c1` displayed an ED50 in assay [1] of 3.2 mg/kg. This compound also gave a Ki at Histamine H3 receptor of 20 nM. In assay [2], this compound showed a -Log K of 4.9.

For the compound `N=C(NCc1ccc(Cl)cc1)SCCCc1c[nH]cn1`, in assay [1], the ED50 was found to be 26 mg/kg. Besides, the -Log K in assay [2] was < 6. Besides, the antagonist dissociation constant (Kb) in assay [3] was > 1 µM.

The compound `c1ccc(C(OCCCc2c[nH]cn2)c2ccccc2)cc1` registered a median effective dose (ED50) in assay [1] of 2.4 mg/kg. The same compound showed a Ki on Histamine H3 receptor of 25.1 nM. The same compound came in with a -Log K in assay [2] of 5.5. Also, the Kb in assay [3] is 0.501 µM.

In assay [1], `Clc1ccc(C(OCCCc2c[nH]cn2)c2ccccc2)cc1` (stereo not given) gave an ED50 of 3.9 mg/kg. In assay [2], the -Log K came out at 5.2.

`Fc1ccc(C(OCCCc2c[nH]cn2)c2ccc(F)cc2)cc1` yielded an ED50 in assay [1] of 1.1 mg/kg. The compound further showed an inhibitory constant (Ki) on Histamine H3 receptor of 25.1 nM. In addition, the -Log K in assay [2] is 5.6.

`Fc1ccc(C(OCCCc2c[nH]cn2)c2ccccc2)cc1` (stereo not given) returned an ED50 in assay [1] of 1.2 mg/kg. Besides, at Histamine H3 receptor, the affinity corresponds to a Ki of 25.1 nM. The compound further registered a -Log K in assay [2] of 5.3.
